Where two headings read alike, the source gives them in different places. Bridge positions count the residues as written; N and C are the ends. Square brackets hold non-standard residues; d marks the D form. Peptide text beside a SMILES is read from it. * marks the point of attachment. Heptanoyl(5-Me) = CCC(C)CCCC(=O)*; Dab = NCC[C@H](N)C(=O)O
Tests used:
S. maltophilia 1237289 = assay: Checkerboard colistin sulphate (CS) plus teicoplanin (TP), MIC/FIC and MBC/FBC; type: cell-based, Stenotrophomonas maltophilia; settings: agent alone, CAMHB, 5*10^5 CFU/ml; for MIC: S. maltophilia 1237289
Description: Checkerboard analysis to determine minimal inhibitory concentration (MIC)/fractional inhibitory concentration (FIC) and minimal […] (MBC)/fractional bacterial concentration (FBC) values of colistin sulphate (CS) plus teicoplanin (TP) for 6 Gram-negative strains with a bacterial load 5(1-10)*10^5 CFU/ml in a cation-adjusted Mueller-Hinton broth (CAMHB). • a. Antimicrobial stock solutions were prepared using sterile distilled water • b. CS was added along the ordinate; TP was added along the abscissa to 96 well, flat bottom, polystyrene panels with no treatment. Colistin alone was tested in triplicates. • c. Serial 2-fold dilutions starting with 640 μg/ml CS and 640 μg/ml TP were made; 15 μl volume of the serial dilutions were added for each agent to the appropriate wells; final volume at 30 μl • d. For each agent tested alone an additional 15 μl media was added to the well. 30 μl were added in control wells where none of the agent was tested. The negative control well contains 150 μl media without any additions • e. From an overnight bacterial culture in tryptic soy broth, 100 μL was added to 10 mL of fresh tryptic soy broth. This was then incubated at 37° C. for 1.5 hour at 180 rpm. • f. Bacteria in 120 μl CAMHB were added to each well (end concentration 5(1-10)*10^5 CFU/ml) • g. […] Turbidity at OD600 is determined with a plate photometer • i. By using a one-time inoculator 3 μl from each well of the 96-well plate were transferred to three blood agar plates. The plates were incubated over night at 37° C. in an ambient air incubator • j. MIC values are defined as lowest concentration which restricts bacterial growth to OD600 ≤0.1 • k. MBC values were determined by visual reading the lowest concentration which inhibits 99.9% of the growth of bacteria in the wells • l. Determination of the fractional inhibitory concentration (FIC) index and fractional bactericidal concentration (FBC) index and characterization of antimicrobial interactions was assessed […]
FIC calculation was carried out as: (MIC of drug A, tested in combination)/(MIC of drug A, tested alone)+(MIC of drug B, tested in combination)/(MIC of drug B, tested alone). FBC calculation was carried out just as well […]
(§1) Interactive categories were calculated from checkerboard analysis using MIC results from testing each agent alone and MIC results from the combination wells adjacent to the wells with growth in them […]
b. Indifference; FIC/FBC>0.5 to<4.0 c. Antagonism; FIC/FBC≥4.0 f. S. maltophilia 1237289 (IHMA), colistin resistant

A. junii 1397597 = assay: as above; type: cell-based, Acinetobacter junii; settings: Acinetobacter junii, 1397597; A. junii; agent alone; CAMHB, 5*10^5 CFU/ml; read-out: MBC
Description: Checkerboard analysis to determine minimal inhibitory concentration (MIC)/fractional inhibitory concentration (FIC) and minimal bacterial concentration (MBC)/fractional bacterial concentration (FBC) values of colistin sulphate (CS) plus teicoplanin (TP) for 6 Gram-negative strains with a bacterial load 5(1-10)*10^5 CFU/ml in a cation-adjusted Mueller-Hinton broth (CAMHB). • a. Antimicrobial stock solutions were prepared using sterile distilled water • b. CS was added along the ordinate; TP was added along the abscissa to 96 well, flat bottom, polystyrene panels with no treatment. Colistin alone was tested in triplicates. • c. Serial 2-fold dilutions starting with 640 μg/ml CS and 640 μg/ml TP were made; 15 μl volume of the serial dilutions were added for each agent to the appropriate wells; final volume at 30 μl • d. For each agent tested alone an additional 15 μl media was added to the well. 30 μl were added in control wells where none of the agent was tested. The negative control well contains 150 μl media without any additions • e. From an overnight bacterial culture in tryptic soy broth, 100 μL was added to 10 mL of fresh tryptic soy broth. This was then incubated at 37° C. for 1.5 hour at 180 rpm. • f. Bacteria in 120 μl CAMHB were added to each well (end concentration 5(1-10)*10^5 CFU/ml) • g. Plates were incubated at 37° C. in an ambient air incubator for 24 h • h. Turbidity at OD600 is determined with a plate photometer • i. By using a one-time inoculator 3 μl from each well of the 96-well plate were transferred to three blood agar plates. The plates were incubated over night at 37° C. in an ambient air incubator • j. […] Determination of the fractional inhibitory concentration (FIC) index and fractional bactericidal concentration (FBC) index and characterization of antimicrobial interactions was assessed […]
as §1

## CCC(C)CCCC(=O)N[C@@H](CCN)C(=O)N[C@H](C(=O)N[C@@H](CCN)C(=O)N[C@H]1CCNC(=O)[C@H]([C@@H](C)O)NC(=O)[C@H](CCN)NC(=O)[C@H](CCN)NC(=O)[C@H](CC(C)C)NC(=O)[C@@H](CC(C)C)NC(=O)[C@H](CCN)NC1=O)[C@@H](C)O (stereo partly drawn) [CS, colistin sulphate] ({Heptanoyl(5-Me)}-[Dab]T[Dab][Dab][Dab][dL]L[Dab][Dab]T; lactam 4-C)
S. maltophilia 1237289; after 48 h growth (values in brackets)
  MIC: (8) mg/l
S. maltophilia 1237289; Stenotrophomonas maltophilia, 1237289, 24 h, 24 h, read-out: MIC
  MIC: ≤ 0.5 µg/mL
S. maltophilia 1237289; Stenotrophomonas maltophilia, S. maltophilia, second of two rows (strain number not given; by order 1237289)
  MBC: 8 µg/mL
A. junii 1397597
  MBC: 8 µg/mL
